The test system of series [1] is Human peripheral blood mononuclear cells. Nature of the series: Human Concanavalin-A Proliferation Assay (Con HU Assay). It is filed as cell-based. The following applies: Homo sapiens, PBMC, concanavalin-A stimulated human PBMC; for inhibition at 100 µM: concentration 100 μm (in parentheses in the cell); for IC50: tritiated thymidine; for inhibition at 10 µM: concentration 10 μm (in parentheses in the cell). The essentials: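 Histopaque-isolated human PBMC (50,000/well) were pre-incubated 15 min with compounds, then stimulated with concanavalin-A at 2.5 μg/ml final for 3 days at 37 °C, 5% CO2. Proliferation measured by 6 h pulse with 0.5 μCi/well [3H]thymidine and beta counting.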

[2] abbreviates: 72 h, 3 days, read-out: % Inhibition of proliferation (at concentrations of 1,10, or 100 μm).

`O=C(Nc1ccc(-n2nc(C(F)(F)F)cc2C(F)(F)F)cc1)c1ccccc1C(F)(F)F` [Example 127, N-[4-[3,5-bis(trifluoromethyl)-1H-pyrazol-1-yl]phenyl]-2-(trifluoromethyl)benzamide]: the melting point was in the range of 133 to 135 °C. For the same compound, the inhibition at 100 µM in series [1] (setting [2]) was 100%. In series [1], this compound showed an IC50 of 487 nM.

Consider `COC(=O)c1cccc(C(=O)Nc2ccc(-n3nc(C(F)(F)F)cc3C(F)(F)F)cc2)c1` [Example 129, Methyl 3-[[[4-[3,5-bis(trifluoromethyl)-1H-pyrazol-1-yl]phenyl]amino]carbonyl]benzoate], for which the melting point was in the range of 174 to 175 °C. The inhibition at 100 µM in series [1] (setting [2]) turned out to be 100%. This compound registered an IC50 in series [1] of 380 nM.

`O=C(Nc1ccc(-n2nc(C(F)(F)F)cc2C(F)(F)F)cc1)c1cccc(Cl)c1` [Example 130, N-[4-[3,5-bis(trifluoromethyl)-1H-pyrazol-1-yl]phenyl]-3-chlorobenzamide] returned a melting point of 142 to 144 °C. The inhibition at 100 µM in series [1] (setting [2]) amounted to 100%. Moreover, in series [1], the midpoint of inhibition, the IC50, lay at 336 nM.

Turning to `N#Cc1cccc(/C=C/c2ccc(-n3nc(C(F)(F)F)cc3C(F)(F)F)cc2)c1` [Example 132, (E)-3-[2-[4-[3,5-bis(trifluoromethyl)-1H-pyrazol-1-yl]phenyl]ethenyl]benzonitrile], the melting point was 116 to 117 °C. In addition, the inhibition at 10 µM in series [1] (setting [2]) came to 56%. For the same compound, in series [1], the IC50 amounted to 6220 nM.

As for `NC(=O)c1ccc(C(=O)Nc2ccc(-n3nc(C(F)(F)F)cc3C(F)(F)F)cc2)cc1` [Example 133, N-[4-[3,5-bis(trifluoromethyl)-1H-pyrazol-1-yl]phenyl]-1,4-benzenedicarboxamide], the melting point lay in the range of 290 to 291 °C. For the same compound, the inhibition at 10 µM in series [1] (setting [2]) was 97%. In series [1], this compound yielded an IC50 of 315 nM.

Take `O=C(Nc1ccc(-n2nc(C(F)(F)F)cc2C(F)(F)F)cc1)c1ccc(F)cc1F` [Example 135, N-[4-[3,5-bis(trifluoromethyl)-1H-pyrazol-1-yl]phenyl]-2,4-difluorobenzamide]: the melting point was in the range of 126 to 128 °C. The inhibition at 100 µM in series [1] (setting [2]) is 100%. The compound further registered an IC50 in series [1] of 207 nM.

With `O=C(Nc1ccc(-n2nc(C(F)(F)F)cc2C(F)(F)F)cc1)c1ccccc1[N+](=O)[O-]` [Example 136, N-[4-[3,5-bis(trifluoromethyl)-1H-pyrazol-1-yl]phenyl]-2-nitrobenzamide], the melting point fell in the range of 174 to 176 °C. Moreover, the inhibition at 100 µM in series [1] (setting [2]) is 99%. Further, the IC50 in series [1] came out at 222 nM.

`N#Cc1cccc(C(=O)Nc2ccc(-n3nc(C(F)(F)F)cc3C(F)(F)F)cc2)c1` [Example 137, N-[4-[3,5-bis(trifluoromethyl)-1H-pyrazol-1-yl]phenyl]-3-cyanobenzamide]: the melting point lay within 162 to 163 °C. Also, the inhibition at 100 µM in series [1] (setting [2]) stood at 98%. In addition, the IC50 in series [1] is 120 nM.

In turn, `NC(=O)c1cccc(C(=O)Nc2ccc(-n3nc(C(F)(F)F)cc3C(F)(F)F)cc2)c1` [Example 138, N-[4-[3,5-bis(trifluoromethyl)-1H-pyrazol-1-yl]phenyl]-1,3-benzenedicarboxamide] returned a melting point of 244 to 245 °C. The inhibition at 10 µM in series [1] (setting [2]) was determined as 99%. Also, the concentration for half-maximal inhibition (IC50) in series [1] stood at 364 nM.

In the case of `O=C(Nc1ccc(-n2nc(C(F)(F)F)cc2C(F)(F)F)cc1)c1cccc([N+](=O)[O-])c1` [Example 140, N-[4-[3,5-bis(trifluoromethyl)-1H-pyrazol-1-yl]phenyl]-3-nitrobenzamide], the melting point was 203 to 204 °C. For the same compound, in series [1] (setting [2]), the inhibition at 100 µM was determined as 100%. The compound also returned an IC50 in series [1] of 298 nM.

As to `NS(=O)(=O)c1cccc(C(=O)Nc2ccc(-n3nc(C(F)(F)F)cc3C(F)(F)F)cc2)c1` [Example 141, 3-(aminosulfonyl)-N-[4-[3,5-bis(trifluoromethyl)-1H-pyrazol-1-yl]phenyl]benzamide], the melting point is 177 to 178 °C. Also, in series [1] (72 h, concentration 1 μm (in parentheses in the cell), 3 days, read-out: % Inhibition of proliferation (at concentrations of 1,10, or 100 μm)), the inhibition at 1 µM worked out at 4%.

For the compound `COC(=O)c1ccc(C(=O)Nc2ccc(-n3nc(C(F)(F)F)cc3C(F)(F)F)cc2)cc1` [Example 142, methyl 4-[[[4-[3,5-bis(trifluoromethyl)-1H-pyrazol-1-yl]phenyl]amino]carbonyl]benzoate], the melting point lay in the range of 195 to 196 °C. Moreover, the inhibition at 10 µM in series [1] (setting [2]) was found to be 99%. Further, inhibition in series [1] was half-maximal at 489 nM (IC50).

With `COc1ccccc1C(=O)Nc1ccc(-n2nc(C(F)(F)F)cc2C(F)(F)F)cc1` [Example 143, N-[4-[3,5-bis(trifluoromethyl)-1H-pyrazol-1-yl]phenyl]-2-methoxybenzamide], the melting point was 100 to 102 °C. Also, the inhibition at 100 µM in series [1] (setting [2]) stood at 100%. The compound also had an IC50 in series [1] of 1680 nM.

Take `COc1cccc(C(=O)Nc2ccc(-n3nc(C(F)(F)F)cc3C(F)(F)F)cc2)c1` [Example 145, N-[4-[3,5-bis(trifluoromethyl)-1H-pyrazol-1-yl]phenyl]-3-methoxybenzamide]: the melting point was 169 to 172 °C. Besides, the inhibition at 100 µM in series [1] (setting [2]) is 94%. In addition, the 50% inhibitory concentration (IC50) in series [1] was found to be 1590 nM.

In the case of `O=C(Nc1ccc(-n2nc(C(F)(F)F)cc2C(F)(F)F)cc1)c1cccc(F)c1` [Example 146, N-[4-[3,5-bis(trifluoromethyl)-1H-pyrazol-1-yl]phenyl]-3-fluorobenzamide], the melting point was in the range of 148 to 151 °C. The inhibition at 100 µM in series [1] (setting [2]) came out at 98%. Further, 269 nM corresponded to half-maximal inhibition in series [1] (IC50).

In the case of `O=C(Nc1ccc(-n2nc(C(F)(F)F)cc2C(F)(F)F)cc1)c1ccccc1Br` [Example 147, N-[4-[3,5-bis(trifluoromethyl)-1H-pyrazol-1-yl]phenyl]-2-bromobenzamide], the melting point was 182 to 184 °C. In addition, in series [1] (setting [2]), the inhibition at 100 µM is 99%. For the same compound, the IC50 in series [1] worked out at 71 nM.

With `O=C(Nc1ccc(-n2nc(C(F)(F)F)cc2C(F)(F)F)cc1)c1ccc2c(c1)OCO2` [Example 148, N-[4-[3,5-bis(trifluoromethyl)-1H-pyrazol-1-yl]phenyl]-1,3-benzodioxole-5-carboxamide], the melting point is 222 to 224 °C. In series [1] (setting [2]), the inhibition at 100 µM came to 94%. This compound returned a 50% inhibitory concentration (IC50) in series [1] of 529 nM.

`O=C(Nc1ccc(-n2nc(C(F)(F)F)cc2C(F)(F)F)cc1)c1ccc(Cl)nc1Cl` [Example 149, N-[4-[3,5-bis(trifluoromethyl)-1H-pyrazol-1-yl]phenyl]-2,6-dichloro-3-pyridinecarboxamide] showed a melting point of 115 to 117 °C. Besides, in series [1] (setting [2]), the inhibition at 100 µM is 100%. In addition, in series [1], the IC50 stood at 336 nM.

Compound `O=C(Nc1ccc(-n2nc(C(F)(F)F)cc2C(F)(F)F)cc1)c1cccnc1Cl` [Example 150, N-[4-[3,5-bis(trifluoromethyl)-1H-pyrazol-1-yl]phenyl]-2-chloro-3-pyridinecarboxamide] displayed a melting point of 145 to 147 °C. The inhibition at 100 µM in series [1] (setting [2]) came to 100%. In series [1], the concentration for half-maximal inhibition (IC50) was 244 nM.

In the case of `Cc1ccc(C(=O)Nc2ccc(-n3nc(C(F)(F)F)cc3C(F)(F)F)cc2)c(Cl)n1` [Example 151, N-[4-[3,5-bis(trifluoromethyl)-1H-pyrazol-1-yl]phenyl]-2-chloro-6-methyl-3-pyridinecarboxamide], the melting point lay in the range of 155 to 156 °C. Moreover, the inhibition at 100 µM in series [1] (setting [2]) came out at 99%. In addition, half-maximal inhibition in series [1] (IC50) required 295 nM.

The term IC50 denotes the concentration that inhibits the measured activity by half. Low values mean inhibition by little substance, high ones a need for much substance. For orientation: melting point means the temperature, or range, at which the solid turns liquid.

Source of the values: patent US20010044445A1, “AZOLE INHIBITORS OF CYTOKINE PRODUCTION” (priority 1999, published 2001).
